Entries after “also recorded” stand apart in the source; their conditions may differ. Values belong to the compound of their own block, whether it stands above or below them.
Tests used:
[1] = system: PCR reaction; experiment: Real-time PCR (qPCR) amplification of ATPB fragment in pTOPO plasmid with a fluorescent monitoring dye; assay type: biochemical; settings: for inhibition of PCR (Ct delay) by the dye: increasing dye concentration
[2] = system: salmon sperm DNA; experiment: Absorbance and fluorescence emission spectra of dyes without or with DNA in PBS buffer; assay type: physicochemical; settings: for spectra of the free dyes: intramolecular H-dimer (hairpin) formation / red shift of absorbance upon binding to DNA, relative to free dye: PBS buffer; for spectra of the free dyes: intramolecular H-dimer (hairpin) formation: FIG. 5; for red shift of absorbance upon binding to DNA, relative to free dye: 2 mg/ml salmon sperm DNA
Protocol: The spectra were normalized to 1 in the absorbance plot. […] The heterodimeric dye AORO-7 comprises a monomeric AO dye and a fluorescent non-nucleic acid rosamine RO dye. Two emission peaks, contributed by AO and RO moieties, respectively, were recorded.

[3] = Thermo-stability of dye at 96° C. in PCR reaction buffers with PCR products; assay type: physicochemical; settings: 96° C. for 40 minutes
Protocol: Specifically, AOAO-12 was kept in PCR reaction buffers with PCR products. The mixture was heated to 96° C. for 40 minutes. During the heating course, the mixture was brought down to 60° C. briefly to monitor the fluorescence.

[4] = system: amplicons HMBS, RPL4, SDHA, TBP; experiment: Melting curves of amplicons after qPCR; assay type: biochemical; settings: for melting peaks of the HMBS amplification reaction (primer dimer): HMBS amplicon, FIG. 15
Protocol: SYBR Green I was reported to be advantageous in that the melting temperature of an amplicon could be detected after qPCR amplification. The melting temperature provides valuable information about the amplicon, as it is a function of the size and GC content of the amplicon. No melting temperatures could be collected from TaqMan reactions. Melting curves from four amplicons, i.e., HMBS (SEQ ID NO: 4), RPL4 (SEQ ID NO: 5), SDHA (SEQ ID NO: 6), and TBP (SEQ ID NO: 7) were measured from reactions amplified in the presence of AOAO-12 (Panel A) or SYBR Green (Panel B) and are presented in FIG. 15.
It has been reported that qPCR reactions with SYBR Green I tend to form primer-dimers, and the tendency is closely related to the concentration of SYBR Green I. It has been postulated that SYBR Green I binds to DNA so tightly that it interferes with the performance of Taq DNA polymerase. As AOAO-12 has less affinity to DNA, the interference should be alleviated.

[5] = system: salmon sperm DNA or a mixture of single-stranded 20mer oligonucleotide; experiment: Fluorescence of AOAO-12 in response to different amounts of DNA (microtiter plate reader); assay type: binding; settings: 0.1 μM dye in PBS
Protocol: It can be seen that fluorescence linearly responded to DNA up to 2.0 μg/ml (inset). At higher concentrations of DNA, the response became non-linear.

[6] = stored in Tris buffer at 4° C.; cited from earlier work
[7] = system: nucleic acid; settings: cited from earlier work

- spectra of the free dyes: intramolecular H-dimer (hairpin) formation ([2]; without DNA): has less spectral shift
Structure (SMILES): CN1/C(=C/c2cc[n+](CCC[N+](C)(C)CCC[N+](C)(C)CCC[n+]3ccc(/C=C4\Sc5ccccc5N4C)c4ccccc43)c3ccccc23)Sc2ccccc21.[I-].[I-].[I-].[I-] [TOTO-1, reference compound]
- inhibition of PCR (Ct delay) by the dye ([1]; qPCR): completely inhibited the PCR reaction

Structure (SMILES): C[n+]1c(C=C2C=CN(CCCCCC(=O)CNCCOCCNC(=O)CCCCCN3C=CC(=Cc4sc5ccccc5[n+]4C)c4ccccc43)c3ccccc32)sc2ccccc21 [TOTO-12]
- Ct and fluorescence intensity in qPCR relative to TO ([1]; FIG. 11): improved Ct and improved fluorescence intensity relative to TO

Structure (SMILES): C[n+]1c(C=C2C=CN(CCCCCC(=O)NCCNC(=O)CCCCCN3C=CC(=Cc4sc5ccccc5[n+]4C)c4ccccc43)c3ccccc32)sc2ccccc21 [TOTO-3]
- spectra of the free dyes: intramolecular H-dimer (hairpin) formation ([2]; without DNA): forms an intramolecular H-dimer, or a hairpin structure

Structure (SMILES): CN(C)c1ccc2cc3ccc(N(C)C)cc3[n+](CCCCCC(=O)NCCOCCNC(=O)CCCCC[n+]3c4cc(N(C)C)ccc4cc4ccc(N(C)C)cc43)c2c1 [AOAO-12]
- stability (fluorescence monitored at 60° C.) [3]: stable at 96 °C for 40 minutes substantially without loss of fluorescence
- final fluorescence signal strength relative to SYBR Green I ([1]; qPCR, dye at higher usable concentration): several folds higher; also recorded: several times higher
- inhibition of PCR (Ct delay) by the dye ([1]; qPCR): without exhibiting inhibition; also recorded: little or no inhibition
- melting peaks of the HMBS amplification reaction (primer dimer) [4]: only a single, clean, and specific peak
- melting temperatures of amplicons relative to SYBR Green I ([4]; four amplicons, lower than SYBR Green I): about 2 degrees
- DNA binding affinity ([4]; relative to SYBR Green I): binds DNA with high affinity but less tightly than SYBR Green I
- height of melting peaks ([4]; relative to SYBR Green I): markedly higher
- DNA concentration up to which fluorescence responded linearly [5]: up to 2.0 μg/ml
- fluorescence bound to double stranded versus single stranded DNA [5]: fluoresces more intensely when bound to double stranded DNA than when bound to single stranded DNA

Structure (SMILES): CCCN(CCCN(C)C)c1cc(/C=C2/Sc3ccccc3N2C)c2ccccc2[n+]1-c1ccccc1 [SYBR Green I, reference compound]
- chemical stability on storage [6]: decomposes significantly over the course of a few days
- inhibition of PCR (Ct delay) by the dye ([1]; qPCR): exhibited inhibition to PCR reactions; also recorded: significantly inhibits PCR at higher dye concentration
- melting peaks of the HMBS amplification reaction (primer dimer) [4]: has an extra primer dimer peak

Structure (SMILES): CN(C)c1ccc2cc3ccc(=[N+](C)C)cc-3oc2c1.[Cl-] [pyronin Y]
- absorption maximum [7]: 548 nm
- emission maximum [7]: 565 nm

- red shift of absorbance upon binding to DNA, relative to free dye [2]: 10 nm
Structure (SMILES): CN(C)CCC[n+]1c2cc(N(C)C)ccc2cc2ccc(N(C)C)cc21.[I-] [DMAO]

- absorption peak of rosamine dye component [2]: 600 nm
- emission peak of rosamine dye component [2]: ~620 nm
- absorption peak of AO component ([2]; DNA): 503 nm
- emission peak of AO component ([2]; DNA): 523 nm
Structure (SMILES): CC1=CC(C)(C)Nc2cc3c(cc21)C(c1ccc(C(=O)NCCCCCC(=O)NCCCCCNC(=O)CCCCC[n+]2c4cc(N(C)C)ccc4cc4ccc(N(C)C)cc42)cc1)=c1cc2c(cc1O3)=NC(C)(C)C=C2C [AORO-7]

- red shift of absorbance upon binding to DNA, relative to free dye [2]: 5 nm
- new shorter wavelength peak in absorbance ([2]; free dye in PBS buffer, without DNA): 471 nm
Structure (SMILES): CN(C)c1ccc2cc3ccc(N(C)C)cc3[n+](CCCCCC(=O)NCCCCCNC(=O)CCCCC[n+]3c4cc(N(C)C)ccc4cc4ccc(N(C)C)cc43)c2c1 [AOAO-7]

Structure (SMILES): CN(C)c1ccc2cc3ccc(N(C)C)cc3nc2c1 [AO, acridine orange]
- absorption wavelength λabs ([7]; DNA bound): 500 nm
- affinity for nucleic acid [7]: very low
- extinction coefficient ([7]; in M-1·cm-1 (unit assumed)): > 50,000

Reference: patent US9580749B2, “Dyes and labeled molecules” (Biotium, Inc., priority 2005, dated 2017)
